Reference: US7514417B2 (CV Therapeutics, Inc., priority 2005, dated 2009)

What follows are compounds tested against T1, A1 adenosine receptor (Mesocricetus auratus, UniProt A0A1U8BVR4) (assay: Competitive radioligand binding assay, A1 binding affinity, DDT1 cell membranes). Settings: membranes of DDT cells, tritiated radioligand (3H-CPA) 1.5 nM, 23° C. 90 minutes.
T1 construct: A1 adenosine receptor sites on the membranes of DDT cells; endogenous in cells; host or cells: DDT cells (DDT1, hamster vas deferens smooth muscle cell line), membrane preparation
T1 sequence (A0A1U8BVR4 1-326): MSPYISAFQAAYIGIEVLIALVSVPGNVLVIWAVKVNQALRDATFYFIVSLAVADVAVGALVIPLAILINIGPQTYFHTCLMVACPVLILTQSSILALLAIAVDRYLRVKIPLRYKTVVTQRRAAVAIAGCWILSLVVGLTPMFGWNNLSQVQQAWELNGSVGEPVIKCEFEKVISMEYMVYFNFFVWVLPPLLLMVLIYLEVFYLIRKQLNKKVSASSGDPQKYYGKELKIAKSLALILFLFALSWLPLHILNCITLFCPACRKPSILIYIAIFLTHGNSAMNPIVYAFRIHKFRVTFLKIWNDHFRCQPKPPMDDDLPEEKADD
Design: species or system hamster
Experimental: DDT cells (hamster vas deferens smooth muscle cell line) were grown as monolayers in petri dishes using Dulbecco's Modified Eagle's Medium (DMEM) containing 2.5 μg mL^−1 amphotericin B, 100 U mL^−1 penicillin G, 0.1 mg mL^−1 streptomycin sulfate and 5% fetal bovine serum in a humidified atmosphere of 95% air and 5% CO2. Cells were subcultured twice weekly by dispersion in Hank's Balanced Salt Solution (HBSS) without the divalent cations and containing 1 mM EDTA. The cells were then seeded in growth medium at a density of 1.2×10^5 cells per plate and experiments were performed 4 days later at approximately one day preconfluence.
Attached cells were washed twice with HBSS (2×10 mL), scraped free of the plate with the aid of a rubber policeman in 5 mL of 50 mM Tris-HCl buffer pH 7.4 at 4° C. and the suspension was homogenized for 10 s. The suspension was then centrifuged at 27,000×g for 10 min. The pellet was resuspended in homogenization buffer by vortexing and centrifuged again as described above. The final pellet was resuspended in 1 vol of 50 mM Tris-HCl buffer pH 7.4 containing 5 mM MgCl2 for A1 adenosine receptor assays. For the [^35S]GTPγS binding assay the final pellet was resuspended in 50 mM Tris-HCl pH 7.4 containing 5 mM MgCl2, 100 mM NaCl and 1 mM dithiothreitol. This membrane suspension was then placed in liquid nitrogen for 10 min and stored at −80° C. Aliquots of the membrane suspension were later thawed and used for assays. The protein content was determined with a Bradford™ Assay Kit using bovine serum albumin as standard.
Briefly, 50-70 ug of membrane protein were incubated in a mixture containing 2U/ml adenosine deaminase and 10 μM GTP-γS in 50 mM Tris-HCl buffer, pH 7.4, with 1 mM EDTA in glass tubes. Stock solutions of the compounds of the invention were serially diluted (10^−10M to 10^−4M) in Tris buffer and added to the incubation mixture. […] After incubation at 23° C. 90 minutes, the reaction was stopped by filtration on a Brandel MR24 cell harvester and washing with ice-cold Tris-EDTA buffer (three times, approximate volume 10 ml/wash) over Whatman GF/B filters (presoaked for 1 h in 0.3% polyethylenimine to reduce non-specific binding). Filters were transferred to scintillation vials and 5 ml of Scintisafe (VWR, Brisbane, Calif.) was added. The amount of radioactivity retained on the filters was determined by liquid scintillation spectrometry.

Compound | Ki
Cc1cc(C)n(-c2nc(NC3CCCC3)c3ncn(C4O[C@H](CO)[C@@H](O)[C@H]4O)c3n2)n1 (some centres unmarked) [listing 1 of 2 here] | 94 nM
CCOC(=O)c1cnn(-c2nc(NC3CC4CCC3C4)c3ncn(C4O[C@H](CO)[C@@H](O)[C@H]4O)c3n2)c1 (stereo partly drawn) [XXXIII, ethyl 1-{9-[(4S,3R,5R)-3,4-dihydroxy-5-(hydroxymethyl)oxolan-2-yl]-6-(bicyclo[2.2.1]hept-2-ylamino)purin-2-yl}pyrazole-4-carboxylate] | 2 nM
O=C(O)c1cnn(-c2nc(NC3CC4CCC3C4)c3ncn(C4O[C@H](CO)[C@@H](O)[C@H]4O)c3n2)c1 (stereo partly drawn) [XXXIV, 1-{9-[(4S,3R,5R)-3,4-dihydroxy-5-(hydroxymethyl)oxolan-2-yl]-6-(bicyclo[2.2.1]hept-2-ylamino)purin-2-yl}pyrazole-4-carboxylic acid] | 1 nM
CNC(=O)c1cnn(-c2nc(NC3CCCC3)c3ncn([C@@H]4O[C@H](CO)[C@@H](O)[C@H]4O)c3n2)c1 [XXXV, (1-{9-[(4S,3R,5R)-3,4-dihydroxy-5-(hydroxymethyl)oxolan-2-yl]-6-(cyclopentylamino)purin-2-yl}pyrazol-4-yl)-N-methylcarboxamide] | 1 nM
Cc1ccc(-c2cnn(-c3nc(N[C@@H]4CCOC4)c4ncn([C@@H]5O[C@H](C(=O)O)[C@@H](O)[C@H]5O)c4n3)c2)cc1 | 121 nM
O=C(NCc1cc(F)cc(C(F)(F)F)c1)c1cnn(-c2nc(N[C@@H]3CCOC3)c3ncn([C@@H]4O[C@H](CO)C(O)C4O)c3n2)c1 (stereo in doubt) [XXI, (1-{6-[((3R)oxolan-3-yl)amino]-9-[(3S,2R,4R,5R)-3,4-dihydroxy-5-(hydroxymethyl)oxolan-2-yl]purin-2-yl}pyrazol-4-yl)-N-{[5-fluoro-3-(trifluoromethyl)phenyl]methyl}carboxamide] | 56 nM
NC(=O)c1cnn(-c2nc(NC3CCCC3)c3ncn([C@@H]4O[C@H](CO)[C@@H](O)[C@H]4O)c3n2)c1 [XXXII, 1-(9-[(4S,3R,5R)-3,4-dihydroxy-5-(hydroxymethyl)oxolan-2-yl]-6-(cyclopentylamino)purin-2-yl}pyrazole-4-carboxamide] | 0.59 nM
CCOC(=O)c1cnn(-c2nc(NC3CCCC3)c3ncn([C@@H]4O[C@H](CO)[C@@H](O)[C@H]4O)c3n2)c1 [III, ethyl 1-{9-[(4S,3R,5R)-3,4-dihydroxy-5-(hydroxymethyl)oxolan-2-yl]-6-(cyclopentylamino)purin-2-yl}pyrazole-4-carboxylate] | 36 nM
(4S,3R,5R)-2-[2-(4-butyl-3,5-dimethylpyrazolyl)-6-(cyclopentylamino)purin-9-yl]-5-(hydroxymethyl)oxolane-3,4-diol [XXVIII] | 188 nM
Cc1cc(C)n(-c2nc(NC3CCCC3)c3ncn(C4O[C@H](CO)[C@@H](O)[C@H]4O)c3n2)n1 (some centres unmarked) [listing 2 of 2 here] | 134 nM
O=C(O)c1ccc(CNC(=O)c2cnn(-c3nc(N[C@@H]4CCOC4)c4ncn([C@@H]5O[C@H](CO)[C@@H](O)[C@H]5O)c4n3)c2)cc1 [XXX, 4-{[(1-{6-[((3R)oxolan-3-yl)amino]-9-[(4S,2R,3R,5R)-3,4-dihydroxy-5-(hydroxymethyl)oxolan-2-yl]purin-2-yl}pyrazol-4-yl)carbonylamino]methyl}benzoic acid] | 8 nM
CCCNC(=O)c1cnn(-c2nc(N[C@@H]3CCOC3)c3ncn([C@@H]4O[C@H](CO)[C@@H](O)[C@H]4O)c3n2)c1 [XIII, (1-{6-[((3R)oxolan-3-yl)amino]-9-[(4S,2R,3R,5R)-3,4-dihydroxy-5-(hydroxymethyl)oxolan-2-yl]purin-2-yl}pyrazol-4-yl)-N-propylcarboxamide] | 10 nM
O=C(O)c1cnn(-c2nc(NC3CCCC3)c3ncn([C@@H]4O[C@H](CO)[C@@H](O)[C@H]4O)c3n2)c1 [XXXI, 1-{9-[(4S,3R,5R)-3,4-dihydroxy-5-(hydroxymethyl)oxolan-2-yl]-6-(cyclopentylamino)purin-2-yl}pyrazole-4-carboxylic acid] | 8 nM
CCOC(=O)c1cnn(-c2nc(NCc3ccccc3)c3ncn([C@@H]4O[C@H](CO)[C@@H](O)[C@H]4O)c3n2)c1 [XII, ethyl 1-{9-[(4S,2R,3R,5R)-3,4-dihydroxy-5-(hydroxymethyl)oxolan-2-yl]-6-[benzylamino]purin-2-yl}pyrazole-4-carboxylate] | 1720 nM
(4S,3R,5R)-2-[6-(bicyclo[2.2.1]hept-2-ylamino)-2-pyrazolylpurin-9-yl]-5-(hydroxymethyl)oxolane-3,4-diol [XXXVI] | 0.4 nM
O=C(O)c1ccc(-c2cnn(-c3nc(N[C@@H]4CCOC4)c4ncn(C5OC(CO)C(O)C5O)c4n3)c2)nc1 (stereo partly drawn) [XVII, 6-(1-{6-[((3R)oxolan-3-yl)amino]-9-[3,4-dihydroxy-5-(hydroxymethyl)oxolan-2-yl]purin-2-yl}pyrazol-4-yl)pyridine-3-carboxylic acid] | 64 nM
CCNC(=O)[C@H]1O[C@@H](n2cnc3c(N[C@@H]4CCOC4)nc(-n4cc(-c5ccc6ccccc6n5)cn4)nc32)[C@H](O)[C@@H]1O | 74 nM
CCNC(=O)c1cnn(-c2nc(NCc3ccccc3)c3ncn([C@@H]4O[C@H](CO)[C@@H](O)[C@H]4O)c3n2)c1 [XV, (1-{9-[(4S,2R,3R,5R)-3,4-dihydroxy-5-(hydroxymethyl)oxolan-2-yl]-6-[benzylamino]purin-2-yl}pyrazol-4-yl)-N-ethylcarboxamide] | 1530 nM
CCOC(=O)c1cnn(-c2nc(NC3CCCC3)c3ncn([C@@H]4O[C@H](CO)[C@@H](O)[C@H]4O)c3n2)c1 (single isomer, unassigned) [XXV] | 0.9 nM
CNC(=O)c1cnn(-c2nc(NCc3ccccc3)c3ncn([C@@H]4O[C@H](CO)[C@@H](O)[C@H]4O)c3n2)c1 [XVI, (1-{9-[(4S,2R,3R,5R)-3,4-dihydroxy-5-(hydroxymethyl)oxolan-2-yl]-6-[benzylamino]purin-2-yl}pyrazol-4-yl)-N-methylcarboxamide] | 1790 nM
CCNC(=O)[C@H]1O[C@@H](n2cnc3c(NC4CCOC4)nc(-n4cc(-c5ccc(C)cc5)cn4)nc32)[C@H](O)[C@@H]1O (some centres unmarked) [I] | 2000 nM
CCNC(=O)[C@H]1O[C@@H](n2cnc3c(N[C@@H]4CCOC4)nc(-n4cc(-c5ccncc5)cn4)nc32)[C@H](O)[C@@H]1O | 1060 nM
O=C(NCc1ccccc1)c1cnn(-c2nc(N[C@@H]3CCOC3)c3ncn([C@@H]4O[C@H](CO)[C@@H](O)[C@H]4O)c3n2)c1 [XX, (1-{6-[((3R)oxolan-3-yl)amino]-9-[(4S,2R,3R,5R)-3,4-dihydroxy-5-(hydroxymethyl)oxolan-2-yl]purin-2-yl}pyrazol-4-yl)-N-benzylcarboxamide] | 1 nM
O=C(NCc1ccc(Cl)cc1)c1cnn(-c2nc(N[C@@H]3CCOC3)c3ncn([C@@H]4O[C@H](CO)[C@@H](O)[C@H]4O)c3n2)c1 [XVIII, (1-{6-[((3R)oxolan-3-yl)amino]-9-[(4S,2R,3R,5R)-3,4-dihydroxy-5-(hydroxymethyl)oxolan-2-yl]purin-2-yl}pyrazol-4-yl)-N-[(4-chlorophenyl)methyl]carboxamide] | 27 nM
CCNC(=O)c1cnn(-c2nc(N[C@@H]3CCOC3)c3ncn([C@@H]4O[C@H](CO)[C@@H](O)[C@H]4O)c3n2)c1 [XI, (1-{6-[((3R)oxolan-3-yl)amino]-9-[(4S,2R,3R,5R)-3,4-dihydroxy-5-(hydroxymethyl)oxolan-2-yl]purin-2-yl}pyrazol-4-yl)-N-ethylcarboxamide] | 10 nM
COC(=O)c1ccc(CNC(=O)c2cnn(-c3nc(N[C@@H]4CCOC4)c4ncn([C@@H]5O[C@H](CO)[C@@H](O)[C@H]5O)c4n3)c2)cc1 [XXIX, methyl 4-{[(1-{6-[((3R)oxolan-3-yl)amino]-9-[(4S,2R,3R,5R)-3,4-dihydroxy-5-(hydroxymethyl)oxolan-2-yl]purin-2-yl}pyrazol-4-yl)carbonylamino]methyl}benzoate] | 6 nM
